Common to all, as to type: functional
What all share (conditions): read-out: DIZ

One assay concerns Escherichia coli. Description: Antibacterial activity against Escherichia coli at 50 ug after 18 hr by Kirby-Bauer's disk diffusion assay. A general note: Agar diffusion results depend on both activity and mobility in agar.
The test system of the next assay is Bacillus subtilis. Nature of the assay: Antibacterial activity against Bacillus subtilis at 50 ug after 18 hr by Kirby-Bauer's disk diffusion assay.
A further assay has as its system Klebsiella. Description: Antibacterial activity against Klebsiella at 50 ug after 18 hr by Kirby-Bauer's disk diffusion assay.
In the next assay the test system is Staphylococcus aureus. Description: Antibacterial activity against Staphylococcus aureus at 50 ug after 18 hr by Kirby-Bauer's disk diffusion assay.

This is an account of results in ChEMBL document CHEMBL3045748, “A novel and eco-friendly procedure for the synthesis of some pyrazolo-thiadiazolo-pyrimidinones and its in vitro anti-bacterial activity” (2012).

Structures are written as SMILES.

For the compound `O=c1c2cnn(-c3ccccc3)c2nc2sc(CNCc3ccco3)nn12`, the zone of inhibition at 50 µg/disc with Escherichia coli amounted to 8.5 mm; with Bacillus subtilis, 18.5 mm; with Klebsiella it was 13 mm; with Staphylococcus aureus, 20 mm.
Turning to `O=c1c2cnn(-c3ccccc3)c2nc2sc(CN3CCOCC3)nn12`, the zone of inhibition at 50 µg/disc in the assay on Escherichia coli stood at 9 mm; with Bacillus subtilis, 7 mm; in the assay on Klebsiella, 14.5 mm; with Staphylococcus aureus, 7.5 mm.
On to `O=c1c2cnn(-c3ccccc3)c2nc2sc(CNc3ccccc3)nn12`, for which the zone of inhibition at 50 µg/disc in the assay with Escherichia coli turned out to be 10.5 mm; with Bacillus subtilis, 14 mm; in the assay with Klebsiella, 12.5 mm; with Staphylococcus aureus it was 14.5 mm.
Take `Cc1cccc(NCc2nn3c(=O)c4cnn(-c5ccccc5)c4nc3s2)c1`: the zone of inhibition at 50 µg/disc with Escherichia coli was determined as 9.5 mm; in the assay with Bacillus subtilis, 17 mm; in the assay on Klebsiella it was 12 mm; with Staphylococcus aureus it was 16.5 mm.
On to `COc1ccc(NCc2nn3c(=O)c4cnn(-c5ccccc5)c4nc3s2)cc1`, for which the zone of inhibition at 50 µg/disc in the assay with Escherichia coli was found to be 11.5 mm; in the assay with Bacillus subtilis, 15.5 mm; with Klebsiella, 14 mm; in the assay with Staphylococcus aureus, 15.5 mm.
`CNCc1nn2c(=O)c3cnn(-c4ccccc4)c3nc2s1`: the zone of inhibition at 50 µg/disc in the assay with Escherichia coli came out at 11 mm; in the assay with Bacillus subtilis, 6.5 mm; with Klebsiella, 11.5 mm; with Staphylococcus aureus, 13.5 mm.
With `CCNCc1nn2c(=O)c3cnn(-c4ccccc4)c3nc2s1`, the zone of inhibition at 50 µg/disc with Escherichia coli was determined as 10.5 mm; in the assay on Bacillus subtilis it was 16 mm; in the assay on Klebsiella it was 12 mm; in the assay with Staphylococcus aureus, 18.5 mm.
For `CCCCCCNCc1nn2c(=O)c3cnn(-c4ccccc4)c3nc2s1`, the zone of inhibition at 50 µg/disc with Escherichia coli was 11 mm; in the assay with Bacillus subtilis, 20.5 mm; with Klebsiella, 11.5 mm; in the assay with Staphylococcus aureus, 17.5 mm.
For `CC1(C)S[C@@H]2[C@H](NC(=O)[C@H](N)c3ccccc3)C(=O)N2[C@H]1C(=O)O` [AMPICILLIN], the zone of inhibition at 50 µg/disc in the assay with Escherichia coli came to 18.5 mm; with Bacillus subtilis, 23.3 mm; with Klebsiella it was 24.5 mm; with Staphylococcus aureus it was 22.5 mm.
